Laboratory results published in publication PMC3466269, “A Comprehensive Strategy to Discover Inhibitors of the Translesion Synthesis DNA Polymerase κ” (PLoS ONE, 2012).

Columns and labels:
[1] = system: XP30RO cells (XP-V); test: Cell survival assay, CellTiter-Glo Luminescent Cell Viability Assay, with or without UV; type: cell-based, Human; conditions: CellTiter-Glo (ATP content); 24 µM, UV 1.5, 4.5 or 7.5 J/m^2
Description: Supplementary file pone.0045032.s001.tif: Figure S1 Effect of candesartan cilexetil on UV-induced cytotoxicity using CellTiter-Glo Luminescent Cell Viability Assay. […] I: candesartan cilexetil. (TIF) Click here for additional data file.

[2] = biological target: T1, Human pol η (residues 1–437) (Homo sapiens, UniProt Q9Y253); test: Radioactive gel-based primer extension assay on non-damaged DNA, pol η; type: biochemical; conditions: average ± standard error, three experiments
T1 construct: Human pol η (residues1–437) was purified following the same procedures; made in house
T1 sequence (Q9Y253 1-437): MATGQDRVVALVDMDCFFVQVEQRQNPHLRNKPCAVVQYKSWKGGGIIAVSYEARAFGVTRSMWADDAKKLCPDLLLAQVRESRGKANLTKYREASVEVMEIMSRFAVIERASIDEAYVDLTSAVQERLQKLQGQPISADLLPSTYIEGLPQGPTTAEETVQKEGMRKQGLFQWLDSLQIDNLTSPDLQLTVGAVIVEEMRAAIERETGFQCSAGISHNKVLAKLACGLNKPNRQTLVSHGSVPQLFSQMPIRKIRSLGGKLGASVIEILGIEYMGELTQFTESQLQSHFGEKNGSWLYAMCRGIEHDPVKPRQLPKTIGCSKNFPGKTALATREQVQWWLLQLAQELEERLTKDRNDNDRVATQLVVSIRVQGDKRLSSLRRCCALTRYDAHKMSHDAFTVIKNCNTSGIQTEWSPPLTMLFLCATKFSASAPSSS
Method: The reactions with pol κ, pol η, and pol ι were carried out in the buffers containing 25 mM Tris-HCl, pH 7.5, 8 mM MgCl2, 10% glycerol, 100 µg/mL bovine serum albumin, and 5 mM DTT. Buffers for pol δ reactions contained 40 mM Hepes-KOH, pH 6.8, 10% glycerol, 200 µg/mL bovine serum albumin, 1 mM DTT, and 8 mM MgCl2. Final concentration of pol κ, pol η, pol ι, or pol δ in the reaction was 0.25 nM, 1 nM, 2.5 nM, or 4 nM, respectively. In this assay, a polymerase was preincubated with the compound for 15 min at room temperature. Primer extensions were then initiated by the addition of DNA substrate at final concentration of 5 nM and carried out for 30 min at room temperature in the presence of 100 µM dCTP and dGTP. The reactions were terminated by the addition of an equal volume of a dye solution containing 95% (v/v) formamide, 10 mM EDTA, 0.03% (w/v) xylene cyanol, and 0.03% (w/v) bromphenol blue. Reaction products were separated through a 15% acrylamide gel containing 8 M urea and visualized with a PhosphorImager screen. The ratio of extended primer to the total amount of primer was measured using ImageQuant 5.2 software to calculate the percentage of primer extended. IC50 values were determined by fitting the data to variable slope four-parameter equations using GraphPad Prism 5. […]

[3] = biological target: T2, Human pol κ (residues 19–526) (Homo sapiens, UniProt Q9UBT6); test: qHTS fluorescence-based DNA strand displacement assay; type: biochemical; conditions: fluorescence strand displacement, 10 nM pol κ, 50 nM substrate, 100 µM dTTP; read-out: qHTS: IC50
T2 construct: Human pol κ (residues 19–526) was purified as previously reported; made in house
T2 sequence (Q9UBT6 19-526): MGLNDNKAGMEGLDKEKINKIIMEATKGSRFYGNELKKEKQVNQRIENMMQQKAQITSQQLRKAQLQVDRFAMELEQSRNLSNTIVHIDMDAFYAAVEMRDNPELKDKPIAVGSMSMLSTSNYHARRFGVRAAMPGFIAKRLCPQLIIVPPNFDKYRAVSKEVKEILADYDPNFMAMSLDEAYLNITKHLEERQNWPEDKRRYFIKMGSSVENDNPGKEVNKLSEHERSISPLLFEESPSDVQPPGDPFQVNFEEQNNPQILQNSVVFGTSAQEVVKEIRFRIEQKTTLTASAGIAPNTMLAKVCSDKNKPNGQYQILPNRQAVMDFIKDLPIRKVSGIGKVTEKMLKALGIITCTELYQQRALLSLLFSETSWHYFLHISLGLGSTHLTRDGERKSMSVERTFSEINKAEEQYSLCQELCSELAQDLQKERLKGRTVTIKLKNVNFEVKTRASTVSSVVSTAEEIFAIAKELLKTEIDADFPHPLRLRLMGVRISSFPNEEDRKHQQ
Method: The substrate used in qHTS was made by the annealing of unlabeled oligodeoxynucleotide primer (5′-TCACCCTCGTACGACTC-3′) and TAMRA-labeled reporter strand (5′-TTTTTTTTTTGC-6-TAMRA-3′) to oligodeoxynucleotide template labeled with BHQ-2 (5′-BHQ-2-[…]-3′) as originally described by Dorjsuren et al.. The annealing mixture of unlabeled primer, TAMRA-labeled reporter, and BHQ-2-labeled template in buffer containing 50 mM Tris-HCl, pH 8.0, 100 mM NaCl, and 5 mM MgCl2 was heated at 95°C for 5 min and allowed to cool gradually to room temperature. The substrate was then stored at −20°C as 50 µM stock.
qHTS was performed in 50 mM Tris-HCI, pH 8.0, 40 mM NaCl, 1 mM MgCl2, 0.01% Tween-20, 2 mM DTT, and 100 µM dTTP. 3 µL of reagents (buffer as negative control and pol κ in the remaining plate at 10 nM final concentration) were dispensed by Flying Reagent Dispenser™ (FRD) (Beckman Coulter, Inc., Fullerton, CA) into a 1,536-well plate. Compounds were delivered as 23 nL in DMSO solution via pintool transfer; vehicle-only control consisted of 23 nL DMSO. The plate was incubated for 15 min at room temperature, and then 1 µL of substrate (50 nM final concentration) was added to initiate the reaction. The plate was immediately transferred into ViewLux reader for kinetic fluorescence data collection.
To lay the foundation for the methodologies to discover and characterize inhibitors of pol κ, we used a fluorescent reporter strand displacement assay (Figure 1 and [27]). The library of bioactive small molecules was tested as seven-point dilution series, with the final concentrations ranging from 2.9 nM to 57 µM.

[4] = biological target: T3, Human pol κ (Homo sapiens, UniProt Q9UBT6); test: Radioactive gel-based primer extension (TLS) past acrolein-derived ring-opened reduced form of γ-HOPdG, pol κ; type: biochemical; conditions: primer extension, adducted DNA, 0.25 nM pol κ; average ± standard error, three experiments; read-out: gel: ring-opened reduced form of γ-HOPdG: IC50
T3 construct: Human pol κ (residues 19–526) was purified as previously reported; made in house
T3 sequence (Q9UBT6 19-526): T2 sequence (Q9UBT6 19-526)
Method: The reactions with pol κ, pol η, and pol ι were carried out in the buffers containing 25 mM Tris-HCl, pH 7.5, 8 mM MgCl2, 10% glycerol, 100 µg/mL bovine serum albumin, and 5 mM DTT. Buffers for pol δ reactions contained 40 mM Hepes-KOH, pH 6.8, 10% glycerol, 200 µg/mL bovine serum albumin, 1 mM DTT, and 8 mM MgCl2. Final concentration of pol κ, pol η, pol ι, or pol δ in the reaction was 0.25 nM, 1 nM, 2.5 nM, or 4 nM, respectively. In this assay, a polymerase was preincubated with the compound for 15 min at room temperature. Primer extensions were then initiated by the addition of DNA substrate at final concentration of 5 nM and carried out for 30 min at room temperature in the presence of 100 µM dCTP and dGTP. The reactions were terminated by the addition of an equal volume of a dye solution containing 95% (v/v) formamide, 10 mM EDTA, 0.03% (w/v) xylene cyanol, and 0.03% (w/v) bromphenol blue. Reaction products were separated through a 15% acrylamide gel containing 8 M urea and visualized with a PhosphorImager screen. The ratio of extended primer to the total amount of primer was measured using ImageQuant 5.2 software to calculate the percentage of primer extended. IC50 values were determined by fitting the data to variable slope four-parameter equations using GraphPad Prism 5.
The primary role of pol κ is to bypass DNA lesions. Therefore, it was critical to establish the assays to investigate the capability of these compounds to inhibit lesion bypass activity of pol κ. Radioactive gel-based primer extension reactions were carried out using a DNA substrate containing a site-specific acrolein-derived ring-opened reduced form of γ-HOPdG, a lesion that pol κ can efficiently bypass in vitro [13].

CCOc1nc2cccc(C(=O)OC(C)OC(=O)OC3CCCCC3)c2n1Cc1ccc(-c2ccccc2-c2nnn[nH]2)cc1 (stereo not shown) [candesartan cilexetil, Candesartan cilexetil]
Effect on UV-induced cytotoxicity [1]: comparable results were obtained
IC50 [2]: 11.2 ± 1 µM
IC50 [3]: 32 µM
IC50 [4]: 11 ± 1.5 µM
